This is an account of results in patent US20260207563A1, “UREA COMPOUNDS AS ACTIVATORS OF POTASSIUM CHANNELS KV7.2/7.3 USEFUL IN THE TREATMENT OF CNS AND PNS DISORDERS” (ANGELINI PHARMA S.P.A., priority 2022, published 2026).

Type in all cases: cell-based
Test [1] concerns the target T1, heteromeric KV7.2/KV7.3 channels (KCNQ2, KCNQ3) (Homo sapiens, UniProt O43525+O43526).
T1 construct: expressed in transfected cells; host or cells: CHO-K1
Put plainly: Automated patch-clamp (Sophion Qube 384) potency assay against KV7.2/KV7.3 channels. The note with it: CHO-K1/Kv7.2/Kv7.3 cells; for EC50: EC50 from concentration-response of shift in Vhalf, 10 concentrations up to 30 μM, read-out: Kv7.2/7.3 EC50; for Kv7.2/7.3 ΔV1/2: maximal shift in the Vhalf from the top of the curve. The method in brief: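 Activator potency: EC50 from 4-parameter logistic fit of mean Vhalf shift across ten 1-in-3 dilutions starting at 30 μM (n=4), with DMSO (typically 0.3%) control. Currents recorded by leak-subtracted whole-cell clamp of stable CHO-K1 KV7.2/KV7.3 cells, held at −80 mV, stepped −100 to +20 mV then 0 mV tails.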
On the technique in general: The patch-clamp technique gives a direct electrical read-out from membranes.

The target of test [2] is T2, heteromeric KV7.3/KV7.5 channel (KCNQ3, KCNQ5) (Homo sapiens, UniProt O43525+Q9NR82).
T2 construct: host or cells: HEK293
Briefly: Automated patch-clamp counter-screening against KV7.3/KV7.5 channel. To be noted: HEK293 cells expressing Kv7.3/KV7.5; class by maximal shift in the Vhalf at 30 μM. The gist of the method: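 Potency came from a 4-parameter logistic fit of mean voltage-of-half-activation shifts, yielding EC50 and maximal shift; selectivity was judged on the shift at 30 μM. Compounds were applied at ten 3-fold dilutions from 30 μM in quadruplicate to HEK293 cells stably carrying Kv7.3 with tet-inducible Kv7.5.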

In test [3] the target is T3, homomeric KV7.4 channel (KCNQ4) (Homo sapiens, UniProt P56696).
T3 construct: host or cells: CHO-K1
Briefly: Automated patch-clamp (Qube) counter-screening assay against KV7.4 channel. The note with it: CHO-K1 cells expressing KV7.4; class by maximal shift in the Vhalf at 30 μM. The method in brief:
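EC50 and maximal shift in half-activation voltage come from 4-parameter logistic fits of mean Vhalf shifts. The series had ten 1-in-3 concentrations, highest 30 μM, each tested in quadruplicate. Recordings used automated Qube patch clamp on a stable CHO-K1 line expressing KCNQ4, and selectivity was judged from the 30 μM Vhalf shift.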

As for `O=C(NCc1ccnc(OCC(F)(F)F)c1)N[C@H]1c2ccccc2C[C@H]1CO` [Compound 151], in test [1], the EC50 worked out at 11.2 µM and the “Kv7.2/7.3 ΔV1/2” value amounted to 23.51 mV. Moreover, the Kv7.3/7.5 selectivity criteria entry in test [2] is on record as “A (Selective compounds showed Kv7.4 and/or Kv7.3/7.5 ΔV1/2 equal to or lower than 15 mV (letter A in table 3))”. For the same molecule, the Kv7.4 selectivity criteria result in test [3] is “A (Selective compounds showed Kv7.4 and/or Kv7.3/7.5 ΔV1/2 equal to or lower than 15 mV (letter A in table 3))”.
Consider `O=C(NCc1ccnc(OCC(F)(F)F)c1)NC1CCCCC1` [Compound 43, 1-Cyclohexyl-3-((2-(2,2,2-trifluoroethoxy)pyridin-4-yl)methyl)urea], for which, in test [1], the EC50 was found to be 0.765 µM and the “Kv7.2/7.3 ΔV1/2” value was 53.72 mV. Further, the Kv7.3/7.5 selectivity criteria entry in test [2] was “B (Non-selective compounds showed Kv7.4 and/or Kv7.3/7.5 ΔV1/2 higher than 15 mV (letter B in table 3))”. In addition, the Kv7.4 selectivity criteria entry in test [3] is “B (Non-selective compounds showed Kv7.4 and/or Kv7.3/7.5 ΔV1/2 higher than 15 mV (letter B in table 3))”.
With `O=C(NCc1ccnc(OCC(F)(F)F)c1)N[C@H]1CCCC[C@@H]1O` [Compound 63, 1-((1S,2S)-2-Hydroxycyclohexyl)-3-((2-(2,2,2-trifluoroethoxy)pyridin-4-yl)methyl)urea], in test [1], the EC50 came out at 11.8 µM and the “Kv7.2/7.3 ΔV1/2” value was 33.01 mV. The Kv7.3/7.5 selectivity criteria result in test [2] is listed as “B (Non-selective compounds showed Kv7.4 and/or Kv7.3/7.5 ΔV1/2 higher than 15 mV (letter B in table 3))”. In test [3], the Kv7.4 selectivity criteria entry was “B (Non-selective compounds showed Kv7.4 and/or Kv7.3/7.5 ΔV1/2 higher than 15 mV (letter B in table 3))”.
For `CC(F)(F)c1cc(CNC(=O)N[C@@H]2CCc3ccc(F)cc32)ccn1` [Compound 124], in test [1], the EC50 was found to be 11.7 µM and the “Kv7.2/7.3 ΔV1/2” value is given as 18.78 mV. For the same molecule, the Kv7.3/7.5 selectivity criteria entry in test [2] was “A (Selective compounds showed Kv7.4 and/or Kv7.3/7.5 ΔV1/2 equal to or lower than 15 mV (letter A in table 3))”. Moreover, the Kv7.4 selectivity criteria entry in test [3] is recorded as “A (Selective compounds showed Kv7.4 and/or Kv7.3/7.5 ΔV1/2 equal to or lower than 15 mV (letter A in table 3))”.
Turning to `O=C(NCCC1(C(F)(F)F)CC1)NCc1cc(OCC(F)(F)F)nc(N2CCOCC2)c1` [Compound 26, 1-((2-Morpholino-6-(2,2,2-trifluoroethoxy)pyridin-4-yl)methyl)-3-(2-(1-(trifluoromethyl)cyclopropyl)ethyl)urea], in test [1], the EC50 worked out at 5.14 µM and the “Kv7.2/7.3 ΔV1/2” value is listed as 31.67 mV. For the same molecule, the Kv7.3/7.5 selectivity criteria result in test [2] is “A (Selective compounds showed Kv7.4 and/or Kv7.3/7.5 ΔV1/2 equal to or lower than 15 mV (letter A in table 3))”. The Kv7.4 selectivity criteria result in test [3] is “B (Non-selective compounds showed Kv7.4 and/or Kv7.3/7.5 ΔV1/2 higher than 15 mV (letter B in table 3))”.
For `O=C(NCc1ccnc(OCC(F)(F)F)c1)N[C@@H]1CCc2ccc(C(F)(F)F)cc21` [Compound 162] the same measures were 0.926 µM, 18.2 mV, “A (Selective compounds showed Kv7.4 and/or Kv7.3/7.5 ΔV1/2 equal to or lower than 15 mV (letter A in table 3))” and “B (Non-selective compounds showed Kv7.4 and/or Kv7.3/7.5 ΔV1/2 higher than 15 mV (letter B in table 3))”.
For `CN(CC(F)(F)F)c1cc(CNC(=O)NCCC2(C(F)(F)F)CC2)ccn1` [Compound 68, 1-((2-(Methyl(2,2,2-trifluoroethyl)amino)pyridin-4-yl)methyl)-3-(2-(1-(trifluoromethyl)cyclopropyl)ethyl)urea], in test [1], the EC50 turned out to be 4.73 µM and the “Kv7.2/7.3 ΔV1/2” value turned out to be 27.19 mV. Further, the Kv7.3/7.5 selectivity criteria result in test [2] is recorded as “A (Selective compounds showed Kv7.4 and/or Kv7.3/7.5 ΔV1/2 equal to or lower than 15 mV (letter A in table 3))”. The Kv7.4 selectivity criteria entry in test [3] was “A (Selective compounds showed Kv7.4 and/or Kv7.3/7.5 ΔV1/2 equal to or lower than 15 mV (letter A in table 3))”.
On to `O=C(NCCC1(C(F)(F)F)CC1)NCc1ccnc(OCc2ncccc2F)c1` [Compound 54, 1-((2-((3-Fluoropyridin-2-yl)methoxy)pyridin-4-yl)methyl)-3-(2-(1-(trifluoromethyl)cyclopropyl)ethyl)urea], for which, in test [1], the EC50 came to 7.61 µM and the “Kv7.2/7.3 ΔV1/2” value is 22.67 mV. Further, the Kv7.3/7.5 selectivity criteria result in test [2] is recorded as “A (Selective compounds showed Kv7.4 and/or Kv7.3/7.5 ΔV1/2 equal to or lower than 15 mV (letter A in table 3))”. For the same molecule, the Kv7.4 selectivity criteria entry in test [3] is “A (Selective compounds showed Kv7.4 and/or Kv7.3/7.5 ΔV1/2 equal to or lower than 15 mV (letter A in table 3))”.
For `O=C(NCCC1(C(F)(F)F)CC1)NC1CCCc2cnc(OCC(F)(F)F)cc21` (centres unmarked) [Compound 21, 1-(3-(2,2,2-Trifluoroethoxy)-5,6,7,8-tetrahydroisoquinolin-5-yl)-3-(2-(1-(trifluoromethyl)cyclopropyl)ethyl)urea], in test [1], the EC50 amounted to 1.8 µM and the “Kv7.2/7.3 ΔV1/2” value is listed as 14.76 mV. In addition, in test [2], the Kv7.3/7.5 selectivity criteria entry is given as “B (Non-selective compounds showed Kv7.4 and/or Kv7.3/7.5 ΔV1/2 higher than 15 mV (letter B in table 3))”. Also, the Kv7.4 selectivity criteria entry in test [3] is reported as “B (Non-selective compounds showed Kv7.4 and/or Kv7.3/7.5 ΔV1/2 higher than 15 mV (letter B in table 3))”.
Take `CC1Cc2cccc(NC(=O)NCc3ccnc(OCC(F)(F)F)c3)c2O1` (centres unmarked) [Compound 136]: in test [1], the EC50 was 0.565 µM and the “Kv7.2/7.3 ΔV1/2” value amounted to 16.11 mV. Moreover, the Kv7.3/7.5 selectivity criteria entry in test [2] is given as “A (Selective compounds showed Kv7.4 and/or Kv7.3/7.5 ΔV1/2 equal to or lower than 15 mV (letter A in table 3))”. Moreover, the Kv7.4 selectivity criteria entry in test [3] was “A (Selective compounds showed Kv7.4 and/or Kv7.3/7.5 ΔV1/2 equal to or lower than 15 mV (letter A in table 3))”.
Turning to `CC(C)(CCNC(=O)NCc1ccnc(OCC(F)(F)F)c1)C(F)(F)F` [Compound 41, 1-(4,4,4-Trifluoro-3,3-dimethylbutyl)-3-((2-(2,2,2-trifluoroethoxy)pyridin-4-yl)methyl)urea], in test [1], the EC50 turned out to be 0.428 µM and the “Kv7.2/7.3 ΔV1/2” value was 29.72 mV. Further, the Kv7.3/7.5 selectivity criteria result in test [2] is “A (Selective compounds showed Kv7.4 and/or Kv7.3/7.5 ΔV1/2 equal to or lower than 15 mV (letter A in table 3))”. The Kv7.4 selectivity criteria entry in test [3] is listed as “A (Selective compounds showed Kv7.4 and/or Kv7.3/7.5 ΔV1/2 equal to or lower than 15 mV (letter A in table 3))”.
With `Cc1ccccc1CNC(=O)NCc1ccnc(OCC(F)(F)F)c1` [Compound 37, 1-(2-Methylbenzyl)-3-((2-(2,2,2-trifluoroethoxy)pyridin-4-yl)methyl)urea], in test [1], the EC50 was found to be 0.82 µM and the “Kv7.2/7.3 ΔV1/2” value is on record as 19.56 mV. Besides, in test [2], the Kv7.3/7.5 selectivity criteria result is “A (Selective compounds showed Kv7.4 and/or Kv7.3/7.5 ΔV1/2 equal to or lower than 15 mV (letter A in table 3))”. Moreover, the Kv7.4 selectivity criteria result in test [3] was “A (Selective compounds showed Kv7.4 and/or Kv7.3/7.5 ΔV1/2 equal to or lower than 15 mV (letter A in table 3))”.
With `O=C(NCc1ccnc(OCC(F)F)c1)N[C@@H]1CCc2ccc(F)cc21` [Compound 111], in test [1], the EC50 was found to be 2.44 µM and the “Kv7.2/7.3 ΔV1/2” value is recorded as 35.96 mV. Moreover, in test [2], the Kv7.3/7.5 selectivity criteria entry is “B (Non-selective compounds showed Kv7.4 and/or Kv7.3/7.5 ΔV1/2 higher than 15 mV (letter B in table 3))”. Moreover, in test [3], the Kv7.4 selectivity criteria result is on record as “A (Selective compounds showed Kv7.4 and/or Kv7.3/7.5 ΔV1/2 equal to or lower than 15 mV (letter A in table 3))”.
For `O=C(NCC1CCCCC1)N[C@@H](CO)c1ccnc(OCC(F)(F)F)c1` [Compound 103], in test [1], the EC50 was determined as 1.34 µM and the “Kv7.2/7.3 ΔV1/2” value came to 42.63 mV. Moreover, the Kv7.3/7.5 selectivity criteria result in test [2] was “B (Non-selective compounds showed Kv7.4 and/or Kv7.3/7.5 ΔV1/2 higher than 15 mV (letter B in table 3))”. The Kv7.4 selectivity criteria entry in test [3] was “A (Selective compounds showed Kv7.4 and/or Kv7.3/7.5 ΔV1/2 equal to or lower than 15 mV (letter A in table 3))”.
Regarding `C[C@H](Oc1nccc(CNC(=O)NCCC2(C(F)(F)F)CC2)n1)C(F)(F)F` [Compound 98], in test [1], the EC50 was found to be 5.14 µM and the “Kv7.2/7.3 ΔV1/2” value came out at 22.14 mV. Besides, the Kv7.3/7.5 selectivity criteria result in test [2] is reported as “A (Selective compounds showed Kv7.4 and/or Kv7.3/7.5 ΔV1/2 equal to or lower than 15 mV (letter A in table 3))”. Besides, the Kv7.4 selectivity criteria entry in test [3] is “A (Selective compounds showed Kv7.4 and/or Kv7.3/7.5 ΔV1/2 equal to or lower than 15 mV (letter A in table 3))”.
Turning to `O=C(NCCC1(C(F)(F)F)CC1)N[C@@H](CO)c1ccnc(OCC(F)(F)F)c1` [Compound 112], in test [1], the EC50 is 0.653 µM and the “Kv7.2/7.3 ΔV1/2” value amounted to 26.53 mV. The Kv7.3/7.5 selectivity criteria result in test [2] is given as “A (Selective compounds showed Kv7.4 and/or Kv7.3/7.5 ΔV1/2 equal to or lower than 15 mV (letter A in table 3))”. Besides, the Kv7.4 selectivity criteria result in test [3] was “A (Selective compounds showed Kv7.4 and/or Kv7.3/7.5 ΔV1/2 equal to or lower than 15 mV (letter A in table 3))”.
For the molecule `Cc1ccc2c(c1)CCC2NC(=O)NCc1ccnc(OCC(F)(F)F)c1` (centres unmarked) [Compound 129], in test [1], the EC50 was determined as 0.931 µM and the “Kv7.2/7.3 ΔV1/2” value turned out to be 14.07 mV. In addition, in test [2], the Kv7.3/7.5 selectivity criteria entry was “A (Selective compounds showed Kv7.4 and/or Kv7.3/7.5 ΔV1/2 equal to or lower than 15 mV (letter A in table 3))”. For the same molecule, the Kv7.4 selectivity criteria entry in test [3] is “A (Selective compounds showed Kv7.4 and/or Kv7.3/7.5 ΔV1/2 equal to or lower than 15 mV (letter A in table 3))”.
